GI50 and TGI data for 7 molecules are collected here from PubChem BioAssay (NCI).

What all share (assay): DTP human tumour cell line panel, 48 h
Experiment [1] has as its system BT-549 breast.
Experiment [2] concerns HCC-2998 colon.
Experiment [3] concerns HCT-15 colon.
Experiment [4] deals with HOP-62 NSCLC.
Experiment [5] deals with HT29 colon.
Experiment [6] has as its system IGROV1 ovarian.
Experiment [7] has as its system MDA-MB-435.
Experiment [8] concerns NCI-H23 lung.
The subject of experiment [9] is OVCAR-3 ovarian.
Experiment [10] has as its system UACC-62 melanoma.

The term GI50 denotes the concentration giving 50% growth inhibition. A word on the TGI: it is the concentration giving total growth inhibition. A low value points to greater sensitivity of the cells.

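96-well plates; 48 h exposure; 5 concentrations. Endpoints by linear interpolation between flanking doses. Not reached: highest tested concentration assigned. The concentration for 50% growth inhibition is given as GI50. TGI denotes the concentration required for complete inhibition of growth.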 A value given as a limit tells only on which side of the number the result lay.

`CCCCCCCCCCN=C(N)c1ccc(N2CCN(c3ccc(C(N)=NCCCCCCCCCC)cc3)CC2)cc1`: the GI50 in experiment [1] was 1.69 µM; in experiment [2], 3.51 µM; in experiment [3] it was 14.1 µM; in experiment [4] it was 11.3 µM; in experiment [5], 3.37 µM; in experiment [6] it was 2.83 µM. Besides, the GI50 in experiment [7] was 2.83 µM; in experiment [8], 3.23 µM; in [9], 2.23 µM; in [10], 6.67 µM. Further, the TGI in [1] is 5.04 µM; in experiment [2], greater than 50 µM; in experiment [3], greater than 50 µM; in experiment [4], 29 µM; in [5], greater than 50 µM; in experiment [6], greater than 50 µM. Further, the TGI is 12.6 µM in [7], greater than 50 µM in experiment [8], 8.57 µM in experiment [9] and 38.1 µM in [10].

As for `O=C1NC(c2ccccc2Cl)Nc2ccccc21` (stereo not given), the TGI in experiment [1], in experiment [2], in experiment [3], in experiment [4], in experiment [5] and in [6] was greater than 100 µM throughout. Also, the TGI in experiment [7] was 4.76 µM; in [8], greater than 100 µM; in experiment [9], 31.3 µM; in [10], greater than 100 µM.

On to `CC(C)c1ccc2c(c1)CCC1C2CCCC1(C)NCc1ccccc1` (stereo not given), for which the GI50 was 8.42 µM in experiment [1]; 0.608 µM in experiment [2]; 2.87 µM in experiment [3]; 8.94 µM in [4]; 0.78 µM in [5]; 6.43 µM in [6]. For the same molecule, the GI50 was 2.79 µM in experiment [7], 5.48 µM in [8], 9.34 µM in experiment [9] and 1.96 µM in [10]. Further, the TGI in experiment [1] amounted to 20.8 µM; in experiment [2], 2.01 µM; in [3] it was 9.05 µM; in experiment [4] it was 21.4 µM; in experiment [5], 2.7 µM; in experiment [6], 20.7 µM. Further, the TGI stood at 9.64 µM in experiment [7], 19.7 µM in experiment [8], 24.4 µM in [9] and 4.39 µM in [10].

For `CC[C@]12C=CCN3CC[C@@]4(c5ccc(OC)cc5N(C)[C@H]4[C@@](O)(C(=O)OC)[C@@H]1OC(=O)CCCN1CCN(CCCC(=O)O[C@@H]4[C@]5(CC)C=CCN6CC[C@@]7(c8ccc(OC)cc8N(C)[C@H]7[C@@]4(O)C(=O)OC)[C@@H]65)CC1)[C@@H]32`, the GI50 is 1.78 µM in [1]; 1.66 µM in experiment [2]; 1.2 µM in [3]; 1.28 µM in experiment [4]; 0.324 µM in experiment [5]; 0.635 µM in experiment [6]. Further, the GI50 in experiment [7] is 1.25 µM; in [8] it was 1.59 µM; in experiment [9], 1.38 µM; in experiment [10] it was 1.68 µM. The TGI worked out at 3.33 µM in experiment [1]; 3.26 µM in [2]; 2.61 µM in experiment [3]; 2.81 µM in experiment [4]; 1.2 µM in [5]; 1.99 µM in experiment [6]. Besides, the TGI in [7] amounted to 2.63 µM; in experiment [8] it was 3.13 µM; in experiment [9] it was 2.82 µM; in experiment [10], 3.13 µM.

Take `Cc1cccc(Oc2ccc(Nc3ncnc4ccc(NC(=O)CN(C)C)cc34)cc2Cl)c1`: the GI50 in experiment [1] was 2.4 µM; in experiment [2], 1.6 µM; in [3] it was 1.6 µM; in [4], 1.89 µM; in [5] it was 1.76 µM; in [6], 0.376 µM. In addition, the GI50 in experiment [7] is 1.67 µM; in experiment [8], 2.95 µM; in experiment [9], 1.16 µM; in experiment [10] it was 1.71 µM. Besides, the TGI in experiment [1] stood at 8.45 µM; in experiment [2], 3.19 µM; in experiment [3], 3.13 µM; in experiment [4], 4.16 µM; in experiment [5], 3.77 µM; in experiment [6], 2.41 µM. Further, the TGI in experiment [7] was found to be 3.14 µM; in experiment [8], 11.6 µM; in [9] it was 3 µM; in [10] it was 3.38 µM.

Turning to `COc1ccc(-c2c(Nc3ccccn3)nc3c(C4=CCCCC4)c(-c4ccccc4)[nH]n3c2=O)cc1`, the GI50 in [1] was 1.88 µM; in [2] it was 3.7 µM; in [3], 1.64 µM; in [4], 3.73 µM; in experiment [5], 2.62 µM; in experiment [6], 3.5 µM. The GI50 in experiment [7] is 2.71 µM; in experiment [8], 4.17 µM; in [9] it was 1.94 µM; in experiment [10] it was 2.2 µM. Further, the TGI in experiment [1] is 17.6 µM; in [2], greater than 100 µM; in [3], greater than 100 µM; in experiment [4], 22.9 µM; in [5], greater than 100 µM; in experiment [6], 51.4 µM. Also, the TGI in experiment [7] was greater than 100 µM; in [8], 24.1 µM; in [9] it was greater than 100 µM; in [10] it was 16.2 µM.

Consider `COc1cc(NC(=O)COc2ccccc2)c(C(N)=O)cc1OC`, for which the GI50 in experiment [1] is 0.77 µM; in experiment [2], 3.33 µM; in experiment [3] it was 0.804 µM; in experiment [4] it was 1.75 µM; in experiment [5], 0.437 µM; in [6], 4.07 µM. The 50% growth inhibitory concentration (GI50) in experiment [7] is 0.203 µM; in [8] it was 1.32 µM; in experiment [9], 0.472 µM; in [10], 2.52 µM. Moreover, the TGI is greater than 100 µM in [1]; 68.3 µM in experiment [2]; greater than 100 µM in experiment [3]; 24.3 µM in experiment [4]; greater than 100 µM in experiment [5]; greater than 100 µM in experiment [6]. In addition, the TGI was 0.875 µM in [7], 20.4 µM in experiment [8], 10.5 µM in experiment [9] and greater than 100 µM in [10].
